Experimental data from patent US20170081338A1, “SUBSTITUTED HETEROARYL COMPOUNDS AND METHODS OF USE” (Sunshine Lake Pharma Co., Ltd., priority 2015, published 2017).

Assays:
[1] = Pharmacokinetics after intravenous and oral administration in rats; format: in vivo; conditions: for Clearance (CL) after iv dosing / AUC(0-t) / half-life / Vd: dose 1 mg/kg, iv dosing; for F: oral bioavailability; for AUC(0-t) / half-life / Vd: rat, plasma; for Vd: read-out: Vss
How it was run: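 Compounds dosed IV at 0.5, 1 or 2 mg/kg and orally at 0.5, 1, 5 or 10 mg/kg in rats, as solution, suspension or capsule formulations. Serial blood sampled out to 24 h and plasma stored frozen. Plasma levels quantified by LC/MS/MS in ESI MRM mode.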

[2] = Compound stability in rat liver microsomes; format: in vitro ADME; conditions: pH 7.4; for half-life at 5 μM: rat liver microsomes 0.5 mg protein/mL, compound 5 μM, NADPH, 37° C., read-out: Rat T1/2; for CLint scaled at 5 μM: rat liver microsomes, in vivo CLint extrapolated
How it was run: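 Microsomes 0.5 mg protein/mL; cpd 5 μM; NADPH 1.0 mM; 100 mM phosphate pH 7.4; DMSO 0.05%; 37° C; duplicates. Timepoints 0–60 min, acetonitrile stop, LC/MS/MS. Data as % of zero-time; CLint extrapolated.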

Clearance (CL) after iv dosing [1] [mL/min/kg] | F [1] [%] | AUC(0-t) [1] [ng·h/mL] | half-life [1] [min] | Vd [1] [L/kg] | half-life at 5 μM [2] [min] | CLint scaled at 5 μM [2] [mL/min/kg] | SMILES
18.3 | 101.3 | 908 | 69 | 0.63 | 67.3 | 36.9 | CC(C)CS(=O)(=O)N[C@H]1COC2C1OC[C@H]2Nc1nc(Nc2cnn(C)c2)ncc1Cl (stereo partly drawn) [Ex. 2, N-((3S,6R)-6-((5-chloro-2-((1-methyl-1H-pyrazol-4-yl)amino)pyrimidin-4-yl)amino)hexahydrofuro[3,2-b]furan-3-yl)-2-methylpropane-1-sulfonamide]
30.3 | 84.2 | 547 | 18 | 0.83 | 69.8 | 35.6 | Cn1cc(Nc2ncc(Cl)c(N[C@@H]3COC4C3OC[C@@H]4NS(=O)(=O)CC3CC3)n2)cn1 (stereo partly drawn) [Ex. 25, N-((3S,6R)-6-((5-chloro-2-((1-methyl-1H-pyrazol-4-yl)amino)pyrimidin-4-yl)amino)hexahydrofuro[3,2-b]furan-3-yl)-1-cyclopropylmethanesulfonamide]
37.8 | 62.7 | 442 | 35.4 | 0.75 | 40.9 | 60.7 | Cn1cc(Nc2ncc(Cl)c(N[C@@H]3COC4C3OC[C@@H]4NS(=O)(=O)CC(C)(C)C#N)n2)cn1 (stereo partly drawn) [Ex. 26, N-((3S,6R)-6-((5-chloro-2-((1-methyl-1H-pyrazol-4-yl)amino)pyrimidin-4-yl)amino)hexahydrofuro[3,2-b]furan-3-yl)-2-cyano-2-methylpropane-1-sulfonamide]
28.8 | 66.1 | 581 | 62.4 | 0.85 | 56.5 | 44 | Cn1cc(Nc2ncc(Cl)c(N[C@@H]3COC4C3OC[C@@H]4NS(=O)(=O)CC(F)(F)F)n2)cn1 (stereo partly drawn) [Ex. 27, N-((3S,6R)-6-((5-chloro-2-((1-methyl-1H-pyrazol-4-yl)amino)pyrimidin-4-yl)amino)hexahydrofuro[3,2-b]furan-3-yl)-2,2,2-trifluoroethanesulfonamide]
